Laboratory results from patent publication US20250302862A1, “SMALL RNA DRUG FOR INHIBITING ACTIVITY OF CANCER CELLS” (Institute of Basic Medical Sciences Chinese Academy of …, priority 2022, published 2025).

Legend:
[1] = Body weight of mice with primary lung cancer; assay type: in vivo, mouse; conditions: KP mice, 10 nmol daily by gavage for one month, sphingosine(d18:1) delivery system, vs NC group
Excerpt: (§1) The mouse model of primary lung cancer was Kras^LSL-G12Dp53^fl/fl (KP).
(§2) Mice were weighed and assigned to the negative control group (NC group) and HQi-sRNA-2 group randomly. The NC group was the negative control, in which a sphingosine(d18:1)-NC-sRNA herbal medicine delivery system was constructed from NC-sRNA. The HQi-sRNA-2 group was the experimental group, in which a sphingosine(d18:1)-HQi-sRNA-2 herbal medicine delivery system was constructed from HQi-sRNA-2.
(§3) The herbal medicine delivery system was constructed by heating and mixing 10 nmol of sRNA, 100 ug of sphingosine(d18:1) and 300 ul of sterile enzyme-free water in a water bath at 90° C. for 15 minutes.
(§4) Each mouse with a uniform body weight was dosed by gavage. Each mouse was given 10 nmol of HQi-sRNA-2 mimic daily by gavage for one month.
The body weight of each mouse was recorded, the curve of body weight over time was plotted, and statistical analysis was performed.

cyclooxygenase-2 (COX2) [2] = experiment: COX2 mRNA (RT-PCR/QPCR) and protein (western blot) in H460 cells; assay type: cell-based, human; conditions: final concentration 10 nmol/L
Description: Method for cell experiment: H460 cells with a cell density of more than 90% in 10 cm2 dishes were plated in 12-well plates (2 plates) according to the cell growth rate, and transfected after 12 h, and the groups were divided as follows: • blank control group (4 wells): 200 uL of opti-MEM per well • negative control group (NC group) and experimental group (3 wells each): the system of each well was as follows • A. 100 uL of opti-MEM and 2 uL of iMax were mixed well for 5 min • B. 100 uL of opti-MEM and 5 uL of small RNA (final concentration 10 nmol/L) were mixed well • C. solution A and solution B were mixed well and let stand for 15 min, and then was added to each well at a 200 uL system • Note: 100 uL of nuclease-free water was added to 2 nmol of small RNA dry powder for dissolution at a storage concentration of 20 umol/L
Cells were collected with Trizo after 24 h of incubation and RNA was extracted. Cells on another plate were collected with RIPA lysis buffer after 48 h of incubation and protein was extracted.
(§5) The relative amount of COX-2 mRNA in the RNA in Method 1 and Method 2 was measured by RT-PCR and QPCR technologies.
(§6) The relative amount of COX-2 protein in the protein in Method 1 and Method 2 was measured by western blot technology.

cyclooxygenase-2 (COX2) [3] = experiment: Dual luciferase reporter assay in 293T cells; assay type: cell-based
Description: The targeting effect of HQi-sRNA-2 obtained from medicinal plants by the inventors on cyclooxygenase-2 (COX2) was studied by a dual luciferase reporter detection system, so as to study its potential to exert lipid-lowering effects.
293T cells were cultured and transfected with the HQi-sRNA-2 to be screened and NC-sRNA, respectively, and then with the dual luciferase reporter plasmid of COX2. The dual luciferase activity was detected after 48 h.

[4] = tested on: primary lung cancer Kras^LSL-G12Dp53^fl/fl (KP) mouse model; experiment: Tumor tissue apoptosis, caspase-3 immunohistochemistry of lung sections; assay type: in vivo; conditions: 10 nmol daily by gavage for one month, vs NC group
Excerpt: as §1, §2, §3, §4
The lungs of mice were collected to prepare pathological sections. The left lung was collected and sliced at the largest surface for every mouse, and subjected to immunohistochemistry of caspase-3. The area of positive cell population in the whole pathological section was counted, the tumor burden was calculated, and statistical analysis was performed.

cyclooxygenase-2 (COX2) [5] = experiment: COX2 mRNA and protein in lung tissues of mice with lung cancer; assay type: in vivo, mouse; conditions: lung tissues of KP mice, 10 nmol daily by gavage for one month
Excerpt: Methods for animal experiment: the mouse model of primary lung cancer was KrasLSL-G12Dp53fl/fl (KP).
Mice were weighed and assigned to the NC group and HQi-sRNA-2 group randomly. The NC group was the negative control, in which a sphingosine(d18:1)-NC-sRNA herbal medicine delivery system was constructed from NC-sRNA. The HQi-sRNA-2 group was the experimental group, in which a sphingosine(d18:1)-HQi-sRNA-2 herbal medicine delivery system was constructed from HQi-sRNA-2.
as §3, §4
RNA and protein were extracted from the right lung of all mice.
as §5, §6

[6] = tested on: pancreatic cancer ASPC-1 cells; experiment: Cell migration (Transwell); assay type: cell-based, human; conditions: 100 nmol/L, jetPRIME, 72 h
Description: (§7) 1) ASPC-1 cells and BXPC-3 cells with a cell density of more than 90% in 10 cm^2 dishes were digested and then resuspended with 1 mL of serum-free medium and counted. 100,000 cells (100 uL) were plated in the upper chamber, and complete medium with 10% FBS was added to the lower chamber of each Transwell chamber. Transfection was performed after 12 h, and the groups (3 wells per group) were divided: • blank control group: 10 uL of jetPRIME Buffer • negative control group (NC group) and experimental group: 10 uL of jetPRIME Buffer was mixed well with 0.5 uL of jetPRIME reagent and 0.5 uL of small RNA and let stand for 15 min, and then was added to each well at a 10 uL system (final concentration 100 nmol/L) • Note: 100 uL of nuclease-free water was added to 2 nmol of small RNA dry powder for dissolution at a storage concentration of 20 umol/L
(§8) After 72 h, the medium in upper and lower chambers was discarded. The cells were fixed with paraformaldehyde at room temperature for 15 min, stained with 0.1% crystal violet at room temperature for 15 min, and rinsed with PBS. The cells in the upper chamber were gently wiped off with cotton swabs, and the chamber was dried. A Leica inverted microscope DMi8 was turned on, the 5× objective lens was selected, the parameters were adjusted and the white balance was performed following the manual. Each chamber was photographed, followed by counting and statistic processing.
as §7, with “divided as follows:” for “divided:”

[7] = tested on: pancreatic cancer BXPC-3 cells; experiment: Cell migration (Transwell); assay type: cell-based, human; conditions: 100 nmol/L, jetPRIME, 72 h
Description: as §7, §8
as §7, with “divided as follows:” for “divided:”

| Substance | body weight of mice with primary lung cancer [1] | mRNA level of COX2 (cyclooxygenase-2 (COX2) [2]; 24 h, RT-PCR and QPCR) | protein level of COX2 (cyclooxygenase-2 (COX2) [2]; 48 h, western blot) | luciferase activity (cyclooxygenase-2 (COX2) [3]; COX2 dual luciferase reporter plasmid, 48 h, compared with NC-sRNA) | luciferase activity (cyclooxygenase-2 (COX2) [3]; base sequence of the binding site mutated) | tumor tissue apoptosis of mice with primary lung cancer [4] | mRNA level of COX2 (cyclooxygenase-2 (COX2) [5]; RT-PCR and QPCR) | protein level of COX2 (cyclooxygenase-2 (COX2) [5]; western blot) | cell migration [6] | cell migration [7] |
| --- | --- | --- | --- | --- | --- | --- | --- | --- | --- | --- |
| HQi-sRNA-2: small RNA derived from Scutellaria baicalensis, sequence AUGGUUCGAUUCCGGAGAGGG (listed as RNA, chemistry not given here) | significantly maintained | significantly down-regulate | significantly down-regulate | significantly reduce | restored | significantly increased | significantly down-regulate | significantly down-regulate |  |  |
| MDM-sRNA-163: small RNA derived from Maytenus hookeri, sequence UGACUCUAGUCCGACUUUGUGAAAUGACU (listed as RNA, chemistry not given here) |  |  |  |  |  |  |  |  | inhibits | inhibits |
| MDM-sRNA-39: small RNA derived from Maytenus hookeri, sequence GGGAUUGUAGUUCAAUUGGUCAGAGCACC (listed as RNA, chemistry not given here) |  |  |  |  |  |  |  |  | inhibits | inhibits |
